Entries after “also recorded” stand apart in the source; their conditions may differ. Where no end group is shown, it is not given here.
Legend:
[1] = Brain distribution of FITC labeled siαSyn after single i.p. injection (co-labeling NeuN, GFAP); assay type: in vivo, mouse
Description: To determine the co-localization between fluorescein isothiocyanate (FITC)-siαSyn and cellular markers, double labeling experiments were performed as previously described (44, 45). […] vibratome sections were immunolabeled with the rabbit polyclonal antibody against α-synuclein (Chemicon, affinity purified polyclonal), NeuN (neuronal marker, Millipore) or GFAP (astroglial marker, Chemicon) and the immunoreactive structures were detected with the Tyramide Signal Amplification™-Direct (Red) system (NEN Life Sciences) while the siRNA was directly visualized by the appended FITC label. Sections were imaged with a Zeiss 63X™ (N.A. 1.4) objective on an Axiovert 35™ microscope (Zeiss) with an attached MRC1024™ LSCM system (BioRad).
4 hours after injection, mice were sacrificed, whole brain removed and fixed. (A,B) Sections were stained for the neuronal marker NeuN and the nuclear stain DAPI and then visualized for co-localization with the FITC labeled siRNA. (D,E) Sections were stained for the astrocytic marker GFAP and the nuclear stain DAPI and then visualized for co-localization with the FITC labeled siRNA.

[2] = tested on: α-synuclein; assay: α-synuclein levels and co-localization in cortex after single i.p. FITC siαSyn:peptide; assay type: in vivo, mouse; details: single i.p. injection, 4 hours
Description: To determine the co-localization between fluorescein isothiocyanate (FITC)-siαSyn and cellular markers, double labeling experiments were performed as previously described (44, 45). 40 p.m-thick vibratome sections were immunolabeled with the rabbit polyclonal antibody against α-synuclein (Chemicon, affinity purified polyclonal), NeuN (neuronal marker, Millipore) or GFAP (astroglial marker, Chemicon) and the immunoreactive structures were detected with the Tyramide Signal Amplification™-Direct (Red) system (NEN Life Sciences) while the siRNA was directly visualized by the appended FITC label. Sections were imaged with a Zeiss 63X™ (N.A. 1.4) objective on an Axiovert 35™ microscope (Zeiss) with an attached MRC1024™ LSCM system (BioRad) [22].
4 hours after injection, mice were sacrificed, whole brain removed and fixed. Sections were stained for α-synuclein and the nuclear marker, DAPI and then visualized for co-localization with the FITC labeled siRNA.

For RLTRKRGLKLAGGGGGRRRRRRRRR [ApoB^11], the “co-labeling of FITC labeled siαSyn RNA with astrocyte marker GFAP” value ([1]; 4 hours after i.p. injection) was “co-labeled with the astrocyte marker, GFAP in the cell body but not in the processes”, the “cellular localization of FITC labeled siαSyn in brain (co-labeling with NeuN, GFAP)” value ([1]; 4 hours after single i.p. injection, 50 μg, siRNA conjugated to the named peptide) was “delivered siαSyn RNA to neuronal cells; also recorded: primarily to neurons and only to a lesser extent the astrocytes” and the “FITC labeled siRNA delivered to NeuN positive neurons, compared with C2-9r peptide” value ([1]; α-syn tg mice, 4 hours after i.p. injection) was “significantly greater”. For the same sequence, the “co-localization of FITC label of siαSyn with αSyn expressing cells” value [2] was “co-localized with αSyn expressing cells”.

From patent publication US20210024583A1, “COMPOSITIONS AND METHODS FOR PEPTIDE MEDIATED OLIGONUCLEOTIDE DELIVERY TO THE CENTRAL NERVOUS SYSTEM” (The Regents of the University of California, priority 2019, published 2021)
